pIC50: −log10 of the molar value.
How the values were obtained:
[1] = target: T1, PRMT5 (Homo sapiens, UniProt O14744); assay: PRMT5 biochemical IC50 assay with SAM as cofactor; details: PRMT5, SAM as cofactor; read-out: SAM IC50
T1 construct: purchased Viva (custom protein)

[2] = test system: HAP1 MTAP-intact cell line; assay: SDMA in-cell western assay, HAP1 MTAP-intact; assay type: cell-based; details: Homo sapiens, HAP1, SDMA in-cell western, HAP1 MTAP-intact; read-out: MTAP HAP1 intact IC50
Method in brief: (§1)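 Readout: in-cell western detection of SDMA. Cells: HAP1 expressing endogenous MTAP and an MTAP-null HAP1 counterpart. Output: IC50.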

[3] = target: T1, PRMT5; assay: PRMT5 biochemical IC50 assay with MTA as cofactor; details: PRMT5, MTA as cofactor; read-out: MTA IC50
[4] = target: T1, PRMT5; assay: PRMT5 biochemical IC50 assay with no cofactor; details: PRMT5, no cofactor; read-out: No Cofactor/ rel IC50
Excerpt: Table 1 indicates IC50 values (μM) against PRMT5 for exemplary compounds in the presence of SAM as cofactor, with no cofactor, and with MTA as cofactor, respectively (columns 4-6). […] Ki values can be calculated from the IC50 values as described in the Examples section. As detailed in the Examples section, for the assay performed in the presence of SAM, IC50=Ki×1.5 (Ki=IC50/1.5).

[5] = test system: HAP1 MTAP-deleted cell line; assay: SDMA in-cell western assay, HAP1 MTAP-deleted; assay type: cell-based; details: for pIC50: Homo sapiens, HAP1, SDMA in-cell western, HAP1 MTAP-deleted, read-out: HAP 1 MTAP deleted IC50; for MTAP intact/deleted ratio: IC50 ratio HAP1 MTAP-intact / HAP1 MTAP-deleted, SDMA in-cell western
Method in brief: as §1

[6] = test system: HAP1 MTAP-deleted cell line; assay: Viability assay, MTAP-deleted cell line; assay type: cell-based; details: Homo sapiens, HAP1, viability, HAP1 MTAP-deleted cell line; read-out: HAP1 MTAP deleted viability
Excerpt: Table 1 additionally indicates IC50 values in a viability assay for the MTAP-deleted cell line (column 10), indicating the effect of treatment with compound on cell survival.

T1 sequence (O14744 whole entry): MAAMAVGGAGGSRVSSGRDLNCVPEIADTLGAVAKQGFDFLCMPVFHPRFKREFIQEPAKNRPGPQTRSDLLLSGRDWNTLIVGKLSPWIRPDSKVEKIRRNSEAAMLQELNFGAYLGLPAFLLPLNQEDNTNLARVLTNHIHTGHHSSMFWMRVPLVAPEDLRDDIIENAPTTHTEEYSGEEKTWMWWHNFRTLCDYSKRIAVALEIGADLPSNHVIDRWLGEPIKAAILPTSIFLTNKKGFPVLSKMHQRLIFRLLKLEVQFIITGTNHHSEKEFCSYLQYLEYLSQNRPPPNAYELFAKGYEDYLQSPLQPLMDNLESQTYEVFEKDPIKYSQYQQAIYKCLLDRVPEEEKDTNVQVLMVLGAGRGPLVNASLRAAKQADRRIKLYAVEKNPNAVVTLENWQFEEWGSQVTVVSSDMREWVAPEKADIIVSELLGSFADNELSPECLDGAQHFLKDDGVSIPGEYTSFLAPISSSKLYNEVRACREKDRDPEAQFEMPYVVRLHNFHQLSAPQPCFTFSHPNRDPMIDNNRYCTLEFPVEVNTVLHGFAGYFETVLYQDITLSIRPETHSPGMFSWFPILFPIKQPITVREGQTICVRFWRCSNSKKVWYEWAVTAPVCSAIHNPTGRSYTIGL
T1 sequence (Q9BQA1 whole entry partner): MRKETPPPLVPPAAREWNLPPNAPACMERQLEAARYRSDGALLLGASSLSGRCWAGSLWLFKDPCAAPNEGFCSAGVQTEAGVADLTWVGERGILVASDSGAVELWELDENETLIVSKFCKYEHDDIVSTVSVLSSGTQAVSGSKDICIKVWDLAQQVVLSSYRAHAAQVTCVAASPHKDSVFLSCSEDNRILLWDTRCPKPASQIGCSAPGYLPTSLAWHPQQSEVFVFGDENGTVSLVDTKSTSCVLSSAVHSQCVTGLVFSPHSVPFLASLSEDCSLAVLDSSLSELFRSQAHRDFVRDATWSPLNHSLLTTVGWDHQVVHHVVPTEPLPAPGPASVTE

Row | pIC50 [1] | pIC50 [2] | pIC50 [3] | pIC50 [4] | pIC50 [5] | Structure (SMILES) | pIC50 [6] | MTAP intact/deleted ratio [5]
1 | < 6.30 | < 6.00 | 6.30 to 7.30 | < 6.30 | 6.00 to 7.00 | CCc1cc(NC(=O)C(=O)N2C[C@H](C)CC[C@H]2c2ccc(N3CCC4(CCCN(C)C4)CC3)cc2)cnc1N (single isomer, unassigned) [Compound 1269] | 5.00 to 6.00 | –
2 | 6.30 to 7.30 | 6.00 to 7.00 | > 7.30 | 6.30 to 7.30 | > 7.00 | CCc1cc(NC(=O)C(=O)N2C[C@@H](C)CC[C@@H]2c2ccc3nn([C@@H]4CCCN(C)C4)cc3c2)cnc1N (single isomer, unassigned) [Compound 1270] | > 6.00 | A (an IC50 ratio greater than or equal to 10 fold)
3 | 6.30 to 7.30 | > 7.00 | > 7.30 | > 7.30 | > 7.00 | CCc1cc(NC(=O)C(=O)N2C[C@@H](C)CC[C@@H]2c2ccc3nn([C@H]4CCCN(C)C4)cc3c2)cnc1N (single isomer, unassigned) [Compound 1271] | > 6.00 | B (an IC50 ratio greater than or equal to 3 fold but lower than 10 fold)
4 | 6.30 to 7.30 | 6.00 to 7.00 | > 7.30 | > 7.30 | > 7.00 | CCc1cc(NC(=O)C(=O)N2C[C@@H](C)CC[C@@H]2c2cccc(C[C@H]3CCCCN3C)c2)cnc1N (single isomer, unassigned) [Compound 1273] | > 6.00 | A (an IC50 ratio greater than or equal to 10 fold)
5 | < 6.30 | < 6.00 | < 6.30 | < 6.30 | < 6.00 | Cc1cc(NC(=O)C(=O)N2C[C@@H](C)[C@H](CC(C)C)C[C@@H]2c2ccc3scnc3c2)cnc1N (single isomer, unassigned) [Compound 1284] | < 5.00 | –
6 | 6.30 to 7.30 | 6.00 to 7.00 | > 7.30 | > 7.30 | > 7.00 | CCc1cc(NC(=O)C(=O)N2C[C@@H](C)[C@@H](OC)C[C@@H]2c2ccc3scnc3c2)cnc1N (single isomer, unassigned) [Compound 1286] | > 6.00 | A (an IC50 ratio greater than or equal to 10 fold)
7 | 6.30 to 7.30 | 6.00 to 7.00 | > 7.30 | > 7.30 | > 7.00 | CCc1cc(NC(=O)C(=O)N2C[C@@H](C)CC[C@@H]2c2ccc(N3CCN(C)[C@@H](C)C3)nc2)cnc1N (single isomer, unassigned) [Compound 1289] | > 6.00 | A (an IC50 ratio greater than or equal to 10 fold)
8 | < 6.30 | < 6.00 | < 6.30 | < 6.30 | 6.00 to 7.00 | Cc1cc(NC(=O)C(=O)N2C[C@H](C)CC[C@H]2c2cccc(C3CCN(C)CC3)c2)cnc1N (single isomer, unassigned) [Compound 1291] | < 5.00 | –
9 | < 6.30 | < 6.00 | < 6.30 | < 6.30 | < 6.00 | Cc1cc(NC(=O)C(=O)N2C[C@@H](C)[C@@H](OC(C)C)C[C@@H]2c2ccccc2)cnc1N (single isomer, unassigned) [Compound 1302] | < 5.00 | –
10 | < 6.30 | < 6.00 | 6.30 to 7.30 | 6.30 to 7.30 | > 7.00 | C[C@@H]1CN(C(=O)C(=O)Nc2cnc(N)c(C3CC3)c2)[C@@H](c2ccc3scnc3c2)CC1(F)F (single isomer, unassigned) [Compound 1307] | > 6.00 | A (an IC50 ratio greater than or equal to 10 fold)
11 | 6.30 to 7.30 | > 7.00 | > 7.30 | > 7.30 | > 7.00 | CCc1cc(NC(=O)C(=O)N2C[C@@H](C)CC[C@@H]2c2ccc3sc([C@@H]4CCN(C)C4)nc3c2)cnc1N (single isomer, unassigned) [Compound 1308] | > 6.00 | A (an IC50 ratio greater than or equal to 10 fold)
12 | 6.30 to 7.30 | > 7.00 | > 7.30 | > 7.30 | > 7.00 | Cc1cc(NC(=O)C(=O)N2C[C@@H](C)CC[C@@H]2c2ccc3sc(-c4cccnc4)nc3c2)cnc1N (single isomer, unassigned) [Compound 1310] | > 6.00 | A (an IC50 ratio greater than or equal to 10 fold)
13 | > 7.30 | > 7.00 | > 7.30 | > 7.30 | > 7.00 | CCc1cc(NC(=O)C(=O)N2C[C@@H](C)CC[C@@H]2c2ccc3sc([C@H]4CCN(C)C4)nc3c2)cnc1N (single isomer, unassigned) [Compound 1311] | > 6.00 | A (an IC50 ratio greater than or equal to 10 fold)
14 | > 7.30 | < 6.00 | > 7.30 | > 7.30 | > 7.00 | C[C@H]1CC[C@H](c2ccc3sc(C4CCN(C)CC4)nc3c2)N(C(=O)C(=O)Nc2cnc(N)c([C@H]3CCOC3)c2)C1 (single isomer, unassigned) [Compound 1312] | > 6.00 | –
15 | 6.30 to 7.30 | 6.00 to 7.00 | > 7.30 | > 7.30 | > 7.00 | Cc1nc2cc([C@H]3CC[C@H](C)CN3C(=O)C(=O)Nc3cnc(N)c(C4CC4)c3)ccc2s1 (single isomer, unassigned) [Compound 1313] | > 6.00 | A (an IC50 ratio greater than or equal to 10 fold)
16 | 6.30 to 7.30 | > 7.00 | > 7.30 | > 7.30 | > 7.00 | CCc1cc(NC(=O)C(=O)N2C[C@@H](C)CC[C@@H]2c2ccc3sc([C@@H](C)N(C)C)nc3c2)cnc1N (single isomer, unassigned) [Compound 1316] | > 6.00 | A (an IC50 ratio greater than or equal to 10 fold)
17 | < 6.30 | < 6.00 | < 6.30 | < 6.30 | < 6.00 | Cc1cc(NC(=O)C(=O)N2C[C@@H](C)CC[C@@H]2c2ccc(CCN(C)C)cc2)cnc1N (single isomer, unassigned) [Compound 1322] | < 5.00 | –
18 | < 6.30 | < 6.00 | < 6.30 | < 6.30 | < 6.00 | Cc1cc(NC(=O)C(=O)N2C[C@H](C)[C@H](OC(F)(F)F)C[C@H]2c2ccc(F)cc2)cnc1N (single isomer, unassigned) [Compound 1323] | < 5.00 | –
19 | < 6.30 | < 6.00 | < 6.30 | < 6.30 | < 6.00 | Cc1cc(NC(=O)C(=O)N2C[C@@H](C)[C@H](OC(C)C)C[C@@H]2c2ccccc2)cnc1N (single isomer, unassigned) [Compound 1327] | 5.00 to 6.00 | –
20 | 6.30 to 7.30 | > 7.00 | > 7.30 | > 7.30 | > 7.00 | Cc1cc(NC(=O)C(=O)N2C[C@@H](C)CC[C@@H]2c2ccc(N3CCN(C)CC3)cc2)cnc1N (single isomer, unassigned) [Compound 1328] | > 6.00 | B (an IC50 ratio greater than or equal to 3 fold but lower than 10 fold)

From US11999727B2 (Tango Therapeutics, Inc., priority 2020, dated 2024)
